The structures appear in SMILES notation.

The target of one data set is T1, human 5-HT2C receptor (Homo sapiens, UniProt P28335).
T1 construct: expressed in transfected cells
T1 sequence (P28335 33-458): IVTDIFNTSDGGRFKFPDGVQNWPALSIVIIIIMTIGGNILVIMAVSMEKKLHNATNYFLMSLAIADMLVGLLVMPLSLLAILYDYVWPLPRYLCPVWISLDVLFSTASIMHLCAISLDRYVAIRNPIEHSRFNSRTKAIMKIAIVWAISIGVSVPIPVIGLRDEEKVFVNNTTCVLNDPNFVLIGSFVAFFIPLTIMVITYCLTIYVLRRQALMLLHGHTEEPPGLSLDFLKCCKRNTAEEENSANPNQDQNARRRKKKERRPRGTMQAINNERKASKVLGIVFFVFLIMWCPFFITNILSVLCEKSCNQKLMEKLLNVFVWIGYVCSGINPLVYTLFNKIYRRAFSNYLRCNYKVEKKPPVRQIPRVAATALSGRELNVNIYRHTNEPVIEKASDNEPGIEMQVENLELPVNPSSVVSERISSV
The experiment in a line: Evaluation of 5-HT2C receptor agonist activity (intracellular calcium increase, FLIPR, CHO cells stably expressing the receptor). The data set is classed as cell-based. To be noted: for EC50: CHO cells stably expressing INI type human 5-HT2C receptor, intracellular Ca increase, logistic regression, read-out: 5-HT2C agonist activity EC50; for Emax: CHO, read-out: 5-HT2C agonist activity Emax. Here is the method: The agonist activity of the compound of the formula (I) on the 5-HT2C receptor was confirmed by the method shown below.
The human 5-HT2C receptor agonist activity was evaluated by measuring the increase of the ligand-dependent intracellular calcium concentration. CHO cells which stably expressing a human 5-HT2C receptor were used. The receptor-expressing cells were prepared by transfecting the genes of the human 5-HT2C receptor (Accession numbers: AF498983 (5-HT2C)) into CHO cells (dihydrofolic acid-deficient strain, DS Pharma Biomedical Co., Ltd.)) using a pEF-BOS vector (Nucleic Acids Research, vol. 18, No. 17). After transcription, the 5-HT2C is known to be subjected to RNA editing to cause differences in three kinds of amino acids, resulting in fourteen receptor isoforms. Among them, cells stably expressing an INI type of 5-HT2C receptor which had not been subjected to editing were used. Cells used for evaluation were cultured in a 10% fetal bovine serum (FBS)-containing medium (trade name: α-MEM, Invitrogen) at 37° C. and 5% carbon dioxide. On the day before the evaluation, the cells were suspended in a serum-free medium (trade name: CD-CHO, Invitrogen) containing 8 mM L-glutamine (trade name: L-glutamine 200 mM, Invitrogen, added to the medium at a final concentration of 8 mM) and dispensed into a 96-well poly-D-lysine-coated plate (trade name: Biocoat PDL96W Black/Clear, Japan Becton, Dickinson and Company)) at 4×10^4 cells/well and cultured at 37° C. and 5% carbon dioxide overnight. A solution including a washing solution (mixture of Hank's Balanced Salt Solution (HBSS)-sodium hydroxide (NaOH), 20 mM 2-[4-(2-hydroxyethyl)-1-piperazinyl]ethanesulfonic acid (HEPES)-sodium hydroxide (NaOH), 2.5 mM probenecid, and 0.1% bovine serum albumin (BSA)), and a 4 μM fluorescent reagent (trade name: Fluo4-AM, Dojindo Co., Ltd.) was used as a loading buffer and the medium of the 96-well plate which had been cultured overnight was replaced with a loading buffer. After leaving to stand (with light-shielding) at room temperature for 3 hours, the cells were washed with a plate washer (trade name: ELx405, BioTek Instruments, Inc.) in which a washing solution had been set up. The plates of the washed cells were set up in a system for measuring a calcium (Ca) concentration in a cell (trade name: FLIPR, Molecular Devices, Inc.). In this device, a test compound that had been dissolved in dimethyl sulfoxide and diluted in the washing solution at a predetermined concentration was added and set up to measure a change in the Ca concentrations in a cell. The difference between a maximum value and a minimum value in the change of the intracellular Ca concentration was determined and kept as measurement data.
Taking the maximum reaction of the 5-HT (agonist action with addition of 5-HT 10 μM) as 100% and the reaction of a solvent alone as 0%, the efficacy (Emax (%)) and potency (EC50 (nM)) of the present invention compound to the maximum reaction of the 5-HT were calculated with a logistic regression method.
For orientation: Calcium assays in cells follow changes in intracellular calcium, usually with a dye or a luminescent sensor.

Data set [1] relates to Hartley female guinea pigs. The experiment in a line: Measurement of external urethral sphincter electromyography. The data set is classed as in vivo, guinea pig. The conditions noted are these: Cavia porcellus; intravenous administration at 3 mg/kg; urethane-anesthetized guinea pigs; activity after solvent taken as 100%; read-out: external urethral sphincter electromyography activity. From the text:
The activating action of the compound of the formula (I) on the urethral sphincter electromyography was confirmed with the method shown below.
Hartley female guinea pigs with a body weight of 250 to 350 g were anesthetized with urethane (Sigma). The guinea pigs were fixed in a supine position and catheters (PE-50; Clay Adams) for administration of test compounds were inserted into the jugular vein. Further, a catheters (PE-160; Clay Adams), for an infusion of physiological saline into bladder and measurement of the intravesical pressure, were inserted through an incision into the dome of the bladder. Further, in order to measure the external urethral sphincter electromyography, two electrodes were inserted into both the left and right sides of the urethral opening to the urethral sphincter. The electrodes for measuring base voltages were placed under the skin of the hind part. The bladder catheter was branched over a three-way stopcock, and one was connected with a 50 mL syringe (Terumo) fixed to an infusion pump (Terumo). The other was connected to a pressure transducer (DX-100; Nihon Kohden Corporation) to transfer the signal of the transducer through an amplifier (AP-630G; Nihon Kohden Corporation) and a data acquisition system (PowerLab; AD Instruments) to a computer and record on a hard disk. The electrodes for electromyography measurement were connected to a control unit (JB-101J; Nihon Kohden Corporation) to transfer the signal through an amplifier (AP-651J; Nihon Kohden Corporation) and a data acquisition system (PowerLab; AD Instruments) to a computer and record on a hard disk. Further, the data were analyzed on the computer using a software (Chart; AD Instruments). […] The electromyography activity was analyzed by taking the lowest potential amplitude as a standard during the stabilization period and using the firing frequency over the standard amplitude as an indicator. At internals between the respective urinations (urine filling phase), the activity of the urethral sphincter electromyography was analyzed and its average value was calculated. After the stabilization period, the solvent and the test compound were administered at an increased dose at an interval of 40 minutes through the catheter placed into the jugular vein. The urethral sphincter electromyography activity after the administration of the solvent was taken as 100% and the urethral sphincter electromyography activity after the administration of the test compound was denoted as a percentage (%) of the electromyography activity after the administration of the solvent.

By EC50 is commonly meant the concentration that produces a half-maximal response. The term Emax denotes the maximal effect, on the per cent scale that the assay sets. One may read the melting point as the temperature, or range, at which the solid turns liquid. `Fc1ccc(Cl)cc1CN1CCOc2cc3c(c(C4CC4)c21)CCNCC3.O=C(O)/C=C/C(=O)O` [Example 290] came in with a melting point of 165 to 168 °C. Moreover, on human 5-HT2C receptor, the EC50 came to 3.8 nM and the Emax stood at 93%. In addition, the response vs control in vivo at 3 mg/kg in data set [1] was at least 200%.

Turning to `O=C(O)/C=C/C(=O)O.c1cc2c(cc1CN1CCOc3cc4c(c(C5CC5)c31)CCNCC4)OCCO2` [Example 291], the melting point was 165 to 168 °C. For the same molecule, on human 5-HT2C receptor, the EC50 amounted to 1.2 nM and the Emax is 93%. The response vs control in vivo at 3 mg/kg in data set [1] was at least 200%.

The molecule `Fc1cc(F)cc(CN2CCOc3cc4c(c(C5CC5)c32)CCNCC4)c1.O=C(O)/C=C/C(=O)O` [Example 313] returned a melting point of 191 to 194 °C. At human 5-HT2C receptor, the half-maximal effective concentration (EC50) was determined as 4.2 nM and the Emax was found to be 97%. The response vs control in vivo at 3 mg/kg in data set [1] is at least 200%.

`CCO[C@H](C)CN1CCOc2cc3c(c(C4CC4)c21)CCNCC3.O=C(O)/C=C/C(=O)O` [Example 315] displayed a melting point of 157 to 160 °C. Moreover, at human 5-HT2C receptor, the EC50 was 2.8 nM and the Emax is 108%. For the same molecule, in data set [1], the response vs control in vivo at 3 mg/kg is at least 200%.

These data come from patent US9598434B2, “Benzazepine compound” (Astellas Pharma Inc., priority 2010, dated 2017).
